Reference: paper PMC12508156, “Non-canonical dihydrolipoyl transacetylase promotes chemotherapy resistance via mitochondrial tetrahydrofolate signaling” (Nature Communications, 2025)
Several values for one entry are separate records, joined by “and”; a condition that tells them apart may be missing. Identical values can stand only once.

Tests used:
Assay type in all cases: cell-based, human
[1] = tested on: PCI-37B cells; assay: Apoptotic cell death (annexin V/PI staining); details: cisplatin 1 μg/ml, 48 h, n=1-3: biological replicates
[2] = tested on: NADPH; assay: NADPH level (NADP/NADPH-Glo)
Experimental: Cellular metabolic states were examined through various assays. To gauge the levels of total intracellular or mitochondrial reactive oxygen species (ROS), cells were stained with CM-H2DCFDA or mitoSOX, respectively. Intracellular H2O2, NADPH, acetyl-CoA, and GSH/GSSG ratios were quantified using commercial assay kits as listed in the Reagents. Intracellular ATP levels were determined utilizing the ATP bioluminescent somatic cell assay and normalized to the total protein concentrations. The de novo synthesized RNA and proteins were assessed in cancer cells using commercial assays following the manufacturer’s protocols. In brief, O-propargyl-puromycin or uridine analog, 5-EU, was applied to stop translation or modify RNA. Polypeptides or modified RNA were measured using fluorescent azide with Ex/Em at 494/521 nm. PDC activity was determined by measuring the reduction of NAD+ to NADH during the conversion of pyruvate into acetyl-CoA. […]
A549cisR (a) and KB-3-1cisR (b) cells were transduced with control or […]
µg/ml; KB-3-1cisR: 5 µg/ml) for 24 h. The GSH/GSSG ratio and relative NADPH levels were measured using GSH/GSSG-Glo Assay and NADP/NADPH-Glo Assay, respectively. Error bars represent SD and are from 4 independent biological replicates for the upper panels of (a,b) and 3 for the lower panels of (a,b). P values were determined by one-way ANOVA.
(§1) (1 picture or pasted object on this page, not shown here)

[3] = tested on: A549cisR and KB-3-1cisR cells; assay: Cell cycle distribution (propidium iodide, flow cytometry)
Experimental: Cell viability was determined using the CellTiter-Glo Luminescent Cell Viability Assay. […] Subsequently, the cells were cultured in complete medium for an additional 10 days, and the resulting colonies were visualized by staining with crystal violet and quantified using ImageJ software. For cell cycle analysis, cells fixed with 70% ethanol were stained with RNase A (100 µg/mL) and propidium iodide (50 μg/ml) for 30 min at 37 °C, and DNA content distribution was measured using flow cytometry (BD Symphony A3) and analyzed with FlowJo software (v10.9). Apoptotic cell death was assessed via FITC-conjugated annexin V and propidium iodide staining.
1cisR cells were transduced with DLAT-targeting shRNA and treated with sublethal doses of […]
antioxidant N-acetylcysteine (NAC). (a) Western blot analysis of p21 waf1/cip1 expression as a marker of cellular senescence. (b) Western blot analysis of LC3-I/II and p62 as markers of autophagy. (c) Cell cycle distribution was assessed by flow cytometry following propidium iodide staining. (d) Intracellular ROS levels were measured using the H2DCFDA probe. Error bars represent SD and are from 3 independent biological replicates for (c,d). P values were determined by one-way ANOVA.
as §1

[4] = A549cisR cells, pLKO.1, replicate 1
[5] = A549cisR cells, pLKO.1, replicate 2
[6] = A549cisR cells, pLKO.1, replicate 3
[7] = A549cisR cells, shDLAT, replicate 1
[8] = A549cisR cells, shDLAT, replicate 2
[9] = A549cisR cells, shDLAT, replicate 3
[10] = KB-3-1cisR cells, pLKO.1, replicate 1
[11] = KB-3-1cisR cells, pLKO.1, replicate 2
[12] = KB-3-1cisR cells, pLKO.1, replicate 3
[13] = KB-3-1cisR cells, shDLAT, replicate 1
[14] = KB-3-1cisR cells, shDLAT, replicate 2
[15] = KB-3-1cisR cells, shDLAT, replicate 3

Question: With `N.N.[Cl][Pt][Cl]` [cisplatin] as the compound, how does the Apoptotic death ([1]; PCI-37B pLKO.1) read?
Answer: The Apoptotic death was 19.17.

Question: And the Apoptotic death ([1]; PCI-37B shDLAT #1)?
Answer: Its Apoptotic death is 38.02.

Question: And the Apoptotic death ([1]; PCI-37B shDLAT #2)?
Answer: The Apoptotic death was 33.33 and 33.41 and 32.54.

Question: And the NADPH ([2]; A549cisR cells, pLKO.1, n=1)?
Answer: The NADPH was 0.7373.

Question: What about the NADPH ([2]; A549cisR cells, pLKO.1, n=2) of the same compound?
Answer: The NADPH was 0.7802.

Question: And the NADPH ([2]; A549cisR cells, pLKO.1, n=3)?
Answer: Its NADPH is 0.7845.

Question: What about the NADPH ([2]; A549cisR cells, shDLAT, n=1) of the same compound?
Answer: The NADPH was 0.3926.

Question: What about the NADPH ([2]; A549cisR cells, shDLAT, n=2) of the same compound?
Answer: The NADPH was 0.3967.

Question: And the NADPH ([2]; A549cisR cells, shDLAT, n=3)?
Answer: The NADPH was 0.3159.

Question: And the NADPH ([2]; A549cisR, CTL, sheet Figure 5G, replicate n=1)?
Answer: Its NADPH is 0.971.

Question: And the NADPH ([2]; A549cisR, CTL, sheet Figure 5G, replicate n=2)?
Answer: The NADPH was 0.9727.

Question: And the NADPH ([2]; A549cisR, CTL, sheet Figure 5G, replicate n=3)?
Answer: Its NADPH is 1.056.

Question: What about the NADPH ([2]; A549cisR, shDLAT+Flag-MTHFD2 (K44Q), sheet Figure 5G, replicate n=1) of the same compound?
Answer: Its NADPH is 1.569.

Question: What about the NADPH ([2]; A549cisR, shDLAT+Flag-MTHFD2 (K44Q), sheet Figure 5G, replicate n=2) of the same compound?
Answer: The NADPH was 1.336.

Question: What about the NADPH ([2]; A549cisR, shDLAT+Flag-MTHFD2 (K44Q), sheet Figure 5G, replicate n=3) of the same compound?
Answer: Its NADPH is 1.475.

Question: What about the NADPH ([2]; A549cisR, shDLAT+Flag-MTHFD2 (K44R), sheet Figure 5G, replicate n=1) of the same compound?
Answer: Its NADPH is 0.5654.

Question: What about the NADPH ([2]; A549cisR, shDLAT+Flag-MTHFD2 (K44R), sheet Figure 5G, replicate n=2) of the same compound?
Answer: The NADPH was 0.5995.

Question: And the NADPH ([2]; A549cisR, shDLAT+Flag-MTHFD2 (K44R), sheet Figure 5G, replicate n=3)?
Answer: The NADPH was 0.6728.

Question: And the NADPH ([2]; A549cisR, shDLAT, sheet Figure 5G, replicate n=1)?
Answer: The NADPH was 0.5978.

Question: What about the NADPH ([2]; A549cisR, shDLAT, sheet Figure 5G, replicate n=2) of the same compound?
Answer: The NADPH was 0.6166.

Question: And the NADPH ([2]; A549cisR, shDLAT, sheet Figure 5G, replicate n=3)?
Answer: Its NADPH is 0.6336.

Question: And the NADPH ([2]; KB-3-1cisR cells, pLKO.1, n=1)?
Answer: The NADPH was 0.8565.

Question: And the NADPH ([2]; KB-3-1cisR cells, pLKO.1, n=2)?
Answer: The NADPH was 0.8236.

Question: And the NADPH ([2]; KB-3-1cisR cells, pLKO.1, n=3)?
Answer: Its NADPH is 0.8268.

Question: What about the NADPH ([2]; KB-3-1cisR cells, shDLAT, n=1) of the same compound?
Answer: The NADPH was 0.3931.

Question: And the NADPH ([2]; KB-3-1cisR cells, shDLAT, n=2)?
Answer: Its NADPH is 0.4089.

Question: And the NADPH ([2]; KB-3-1cisR cells, shDLAT, n=3)?
Answer: The NADPH was 0.429.

Question: What about the NADPH ([2]; KB-3-1cisR, CTL, sheet Figure 5G, replicate n=1) of the same compound?
Answer: The NADPH was 0.9984.

Question: And the NADPH ([2]; KB-3-1cisR, CTL, sheet Figure 5G, replicate n=2)?
Answer: The NADPH was 0.9855.

Question: What about the NADPH ([2]; KB-3-1cisR, CTL, sheet Figure 5G, replicate n=3) of the same compound?
Answer: The NADPH was 1.016.

Question: What about the NADPH ([2]; KB-3-1cisR, shDLAT+Flag-MTHFD2 (K44Q), sheet Figure 5G, replicate n=1) of the same compound?
Answer: The NADPH was 1.788.

Question: What about the NADPH ([2]; KB-3-1cisR, shDLAT+Flag-MTHFD2 (K44Q), sheet Figure 5G, replicate n=2) of the same compound?
Answer: The NADPH was 1.788.

Question: And the NADPH ([2]; KB-3-1cisR, shDLAT+Flag-MTHFD2 (K44Q), sheet Figure 5G, replicate n=3)?
Answer: Its NADPH is 1.859.

Question: What about the NADPH ([2]; KB-3-1cisR, shDLAT+Flag-MTHFD2 (K44R), sheet Figure 5G, replicate n=1) of the same compound?
Answer: The NADPH was 0.4153.

Question: What about the NADPH ([2]; KB-3-1cisR, shDLAT+Flag-MTHFD2 (K44R), sheet Figure 5G, replicate n=2) of the same compound?
Answer: Its NADPH is 0.3927.

Question: What about the NADPH ([2]; KB-3-1cisR, shDLAT+Flag-MTHFD2 (K44R), sheet Figure 5G, replicate n=3) of the same compound?
Answer: The NADPH was 0.4088.

Question: What about the NADPH ([2]; KB-3-1cisR, shDLAT, sheet Figure 5G, replicate n=1) of the same compound?
Answer: Its NADPH is 0.404.

Question: What about the NADPH ([2]; KB-3-1cisR, shDLAT, sheet Figure 5G, replicate n=2) of the same compound?
Answer: Its NADPH is 0.4217.

Question: What about the NADPH ([2]; KB-3-1cisR, shDLAT, sheet Figure 5G, replicate n=3) of the same compound?
Answer: Its NADPH is 0.4378.

Question: What about the “Cell cycle, G1 phase” value [3, 4] of the same compound?
Answer: Its value is 34.1.

Question: And the “Cell cycle, G2 phase” value [3, 4]?
Answer: Its value is 36.2.

Question: And the “Cell cycle, S phase” value [3, 4]?
Answer: The value was 29.7.

Question: And the “Cell cycle, G1 phase” value [3, 5]?
Answer: Its value is 33.1.

Question: And the “Cell cycle, G2 phase” value [3, 5]?
Answer: Its value is 39.3.

Question: What about the “Cell cycle, G1 phase” value [3, 6] of the same compound?
Answer: Its value is 33.1.

Question: What about the “Cell cycle, G2 phase” value [3, 6] of the same compound?
Answer: Its value is 38.8.

Question: And the “Cell cycle, S phase” value [3, 6]?
Answer: Its value is 28.1.

Question: What about the “Cell cycle, G1 phase” value [3, 7] of the same compound?
Answer: Its value is 39.2.

Question: What about the “Cell cycle, G2 phase” value [3, 7] of the same compound?
Answer: The value was 37.2.

Question: What about the “Cell cycle, S phase” value [3, 7] of the same compound?
Answer: The value was 23.6.

Question: And the “Cell cycle, G1 phase” value [3, 8]?
Answer: The value was 39.5.

Question: What about the “Cell cycle, G2 phase” value [3, 8] of the same compound?
Answer: Its value is 39.6.

Question: What about the “Cell cycle, S phase” value [3, 8] of the same compound?
Answer: Its value is 20.9.

Question: What about the “Cell cycle, G1 phase” value [3, 9] of the same compound?
Answer: Its value is 39.5.

Question: And the “Cell cycle, G2 phase” value [3, 9]?
Answer: Its value is 38.6.

Question: What about the “Cell cycle, S phase” value [3, 9] of the same compound?
Answer: Its value is 21.9.

Question: What about the “Cell cycle, G1 phase” value [3, 10] of the same compound?
Answer: Its value is 23.3.

Question: And the “Cell cycle, G2 phase” value [3, 10]?
Answer: The value was 58.9.

Question: And the “Cell cycle, S phase” value [3, 10]?
Answer: The value was 17.8.

Question: What about the “Cell cycle, G1 phase” value [3, 11] of the same compound?
Answer: Its value is 23.7.

Question: And the “Cell cycle, G2 phase” value [3, 11]?
Answer: Its value is 58.1.

Question: What about the “Cell cycle, S phase” value [3, 11] of the same compound?
Answer: Its value is 18.2.

Question: What about the “Cell cycle, G1 phase” value [3, 12] of the same compound?
Answer: Its value is 24.3.

Question: What about the “Cell cycle, G2 phase” value [3, 12] of the same compound?
Answer: Its value is 57.9.

Question: What about the “Cell cycle, S phase” value [3, 12] of the same compound?
Answer: Its value is 17.8.

Question: What about the “Cell cycle, G1 phase” value [3, 13] of the same compound?
Answer: Its value is 18.3.

Question: What about the “Cell cycle, G2 phase” value [3, 13] of the same compound?
Answer: The value was 63.6.

Question: What about the “Cell cycle, S phase” value [3, 13] of the same compound?
Answer: Its value is 18.1.

Question: And the “Cell cycle, G1 phase” value [3, 14]?
Answer: The value was 17.6.

Question: What about the “Cell cycle, G2 phase” value [3, 14] of the same compound?
Answer: The value was 63.5.

Question: What about the “Cell cycle, S phase” value [3, 14] of the same compound?
Answer: The value was 18.9.

Question: And the “Cell cycle, G1 phase” value [3, 15]?
Answer: Its value is 17.

Question: And the “Cell cycle, S phase” value [3, 15]?
Answer: The value was 19.8.
